Experimental data as given in patent US8022088B2, “Substituted bicyclic and tricyclic thrombin receptor antagonists” (Schering Corporation, priority 2006, dated 2011).
pIC50, pKi: −log10 of the molar value.

Each compound was assayed against T1, thrombin receptor (Homo sapiens, UniProt P25116) (assay: High throughput thrombin receptor radioligand binding assay ([3H]haTRAP, platelet membranes)). Details: [3H]haTRAP binding to platelet membranes.
T1 construct: tissue North Jersey Blood Center (East Orange, N.J.); host or cells: platelet membranes prepared from platelet concentrates
T1 sequence (P25116 22-425): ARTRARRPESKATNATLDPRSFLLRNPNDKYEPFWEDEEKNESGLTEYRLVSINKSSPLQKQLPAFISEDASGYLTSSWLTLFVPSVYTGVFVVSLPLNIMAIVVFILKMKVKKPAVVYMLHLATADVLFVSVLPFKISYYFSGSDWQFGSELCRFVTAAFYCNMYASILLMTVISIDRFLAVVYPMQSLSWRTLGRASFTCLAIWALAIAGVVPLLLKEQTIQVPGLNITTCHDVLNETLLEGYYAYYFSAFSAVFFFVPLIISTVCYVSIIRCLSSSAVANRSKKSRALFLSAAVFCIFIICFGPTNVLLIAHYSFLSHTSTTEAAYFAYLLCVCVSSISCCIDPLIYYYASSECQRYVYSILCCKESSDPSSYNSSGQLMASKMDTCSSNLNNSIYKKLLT
Method: A(pF-F)R(ChA)(hR)(I2—Y)—NH2 (1.03 mg) and 10% Pd/C (5.07 mg) were suspended in DMF (250 μl) and diisopropylethylamine (10 μl). The vessel was attached to the tritium line, frozen in liquid nitrogen and evacuated. Tritium gas (342 mCi) was then added to the flask, which was stirred at room temperature for 2 hours. At the completion of the reaction, the excess tritium was removed and the reacted peptide solution was diluted with DMF (0.5 ml) and filtered to remove the catalyst. The collected DMF solution of the crude peptide was diluted with water and freeze dried to remove the labile tritium. The solid peptide was redissolved in water and the freeze drying process repeated. The tritiated peptide ([^3H]haTRAP) was dissolved in 0.5 ml of 0.1% aqueous TFA and purified by HPLC using the following conditions: column, Vydac™ C18, 25 cm×9.4 mm I.D.; mobile phase, (A) 0.1% TFA in water, (B) 0.1% TFA in CH3CN; gradient, (A/B) from 100/0 to 40/60 over 30 min; flow rate, 5 ml/min; detection, UV at 215 nm. The radiochemical purity of [^3H]haTRAP was 99% as analyzed by HPLC. A batch of 14.9 mCi at a specific activity of 18.4 Ci/mmol was obtained.
Platelet membranes were prepared using a modification of the method of Natarajan et al. (Natarajan et al, Int. J. Peptide Protein Res. 45:145-151 (1995)) from 20 units of platelet concentrates obtained from the North Jersey Blood Center (East Orange, N.J.) within 48 hours of collection. All steps were carried out at 4° C. under approved biohazard safety conditions. Platelets were centrifuged at 100×g for 20 minutes at 4° C. to remove red cells. The supernatants were decanted and centrifuged at 3000×g for 15 minutes to pellet platelets. Platelets were re-suspended in 10 mM Tris-HCl, pH 7.5, 150 mM NaCl, 5 mM EDTA, to a total volume of 200 ml and centrifuged at 4400×g for 10 minutes. This step was repeated two additional times. Platelets were re-suspended in 5 mM Tris-HCl, pH 7.5, 5 mM EDITA to a final volume of approximately 30 ml and were homogenized with 20 strokes in a Dounce™ homogenizer. Membranes were pelleted at 41,000×g, re-suspended in 40-50 ml 20 mM Tris-HCl, pH 7.5, 1 mM EDTA, 0.1 mM dithiothreitol, and 10 ml aliquots were frozen in liquid N2 and stored at −80° C. To complete membrane preparation, aliquots were thawed, pooled, and homogenized with 5 strokes of a Dounce homogenizer. Membranes were pelleted and washed 3 times in 10 mM triethanolamine-HCl, pH 7.4, 5 mM EDTA, and re-suspended in 20-25 ml 50 mM Tris-HCl, pH 7.5, 10 mM MgCl2, 1 mM EGTA, and 1% DMSO. Aliquots of membranes were frozen in liquid N2 and stored at −80° C. Membranes were stable for at least 3 months. 20 units of platelet concentrates typically yielded 250 mg of membrane protein. Protein concentration was determined by a Lowry assay (Lowry et al., J. Biol. Chem., 193:265-275 (1951)).
Thrombin receptor antagonists were screened using a modification of the thrombin receptor radioligand binding assay of Ahn et al. (Ahn et al., Mol. Pharmacol, 51:350-356 (1997)). The assay was performed in 96 well Nunc plates (Cat. No. 269620) at a final assay volume of 200 μl. Platelet membranes and [^3H]haTRAP were diluted to 0.4 mg/ml and 22.2 nM, respectively, in binding buffer (50 mM Tris-HCl, pH 7.5, 10 mM MgCl2, 1 mM EGTA, 0.1% BSA). Stock solutions (10 mM in 100% DMSO) of test compounds were further diluted in 100% DMSO. Unless otherwise indicated, 10 μl of diluted compound solutions and 90 μl of radioligand (a final concentration of 10 nM in 5% DMSO) were added to each well, and the reaction was started by the addition of 100 μl of membranes (40 μg protein/well). […] Compounds were tested at three concentrations (0.1, 1 and 10 μM). The plates were covered and vortex-mixed gently on a Lab-Line™ Titer Plate Shaker for 1 hour at room temperature. Packard UniFilter™ GF/C filter plates were soaked for at least 1 hour in 0.1% polyethyleneimine. […]
In the case of C[C@@H]1[C@@H](C)[C@H](/C=C/c2ccc(-c3ccccc3C#N)cn2)C[C@@H]2OC(=O)C[C@@H]12 [Compound 1], the pIC50 was 7.35. C[C@@H]1[C@@H](C)[C@H](/C=C/c2ccc(-c3ccccc3C#N)cn2)C[C@H]2OC(=O)C[C@@H]12 [Compound 2] was tested, and the pIC50 was 7.80 and the pKi was 7.96. For O=C1C[C@H]2[C@@H]3CCCC[C@H]3[C@H](/C=C/c3ccc(-c4cccc(F)c4)cn3)C[C@H]2O1 [Compound 3], the pIC50 was 8.32 and the pKi was 8.51. O=C1C[C@H]2[C@@H]3CCCC[C@H]3[C@H](/C=C/c3ccc(-c4cc(Cl)ccc4Cl)cn3)C[C@H]2O1 [Compound 4] was tested, and the pIC50 was 7.70 and the pKi was 7.89. In the case of N#Cc1cccc(-c2ccc(/C=C/[C@@H]3C[C@H]4OC(=O)C[C@H]4[C@@H]4CCCC[C@H]43)nc2)c1 [Compound 5], the pIC50 was 8.17 and the pKi was 8.37.
